Several values for one entry are separate records, joined by “and”; a condition that tells them apart may be missing. Equal entries are not always repeated.
How the values were obtained:
[1] = Determination of pKa of formulated lipids with the fluorescent probe TNS; settings: for Lipid B pKa (±0.2): Lipid B by itself, formulation 40:10:40:10
Procedure: The pKa values for the different ionizable cationic lipids were determined essentially as described (Eastman et al., 1992 Biochemistry 31:4262-4268, which is incorporated by reference in its entirety) using the fluorescent probe 2-(p-toluidino)-6-naphthalenesulfonic acid (TNS), which is non-fluorescent in water but becomes appreciably fluorescent when bound to membranes. Vesicles composed of cationic lipid/DSPC/CH/PEG-c-DOMG (40:10:40:10 mole ratio) were diluted to 0.1 mM in buffers (130 mM NaCl, 10 mM CH3COONH4, 10 mM MES, 10 mM HEPES) of various pH values ranging from 2 to 11. An aliquot of the TNS aqueous solution (1 μM final) was added to the diluted vesicles and after a 30 second equilibration period the fluorescent of the TNS-containing solution was measured at excitation and emission wavelengths of 321 nm and 445 nm, respectively. The pKa of the cationic lipid-containing vesicles was determined by plotting the measured fluorescence against the pH of the solutions and fitting the data to a Sigmodial curve using the commercial graphing program IgorPro.

Factor VII = assay: In vivo mouse Factor VII silencing model (FVII siRNA in lipid formulations, serum FVII chromogenic assay); set-up: species or system C57Bl/6 mice; settings: for ED50: dose giving 50% reduction in plasma FVII vs control animals, i.v. tail vein, 24 h, FVII siRNA formulation; for Lipid A ED50: Lipid A by itself; for Lipid B ED50: Lipid B by itself; for % residual FVII: 40% cationic lipid/10% DSPC/40% cholesterol/10% PEG-DMG, FIG. 4
Procedure: C57BL/6 mice (Charles River Labs, MA) received either saline or siRNA in desired formulations via tail vein injection at a volume of 0.01 mL/g. At various time points post-administration, animals were anesthesized by isofluorane inhalation and blood was collected into serum separator tubes by retro orbital bleed. Serum levels of Factor VII protein were determined in samples using a chromogenic assay (Coaset Factor VII, DiaPharma Group, OH or Biophen FVII, Aniara Corporation, OH) according to manufacturer protocols. A standard curve was generated using serum collected from saline treated animals. In experiments where liver mRNA levels were assessed, at various time points post-administration, animals were sacrificed and livers were harvested and snap frozen in liquid nitrogen. Frozen liver tissue was ground into powder. Tissue lysates were prepared and liver mRNA levels of Factor VII and apoB were determined using a branched DNA assay (QuantiGene Assay, Panomics, CA).
Factor VII (FVII), a prominent protein in the coagulation cascade, is synthesized in the liver (hepatocytes) and secreted into the plasma. FVII levels in plasma can be determined by a simple, plate-based colorimetric assay. As such, FVII represents a convenient model for determining sirna-mediated downregulation of hepatocyte-derived proteins, as well as monitoring plasma concentrations and tissue distribution of the nucleic acid lipid particles and siRNA.
C57BL/6 mice (Charles River Labs, MA) received either saline or formulated siRNA via tail vein injection. At various time points after administration, serum samples were collected by retroorbital bleed. Serum levels of Factor VII protein were determined in samples using a chromogenic assay (Biophen FVII, Aniara Corporation, OH). To determine liver mRNA levels of Factor VII, animals were sacrificed and livers were harvested and snap frozen in liquid nitrogen. Tissue lysates were prepared from the frozen tissues and liver mRNA levels of Factor VII were quantified using a branched DNA assay (QuantiGene Assay, Panomics, CA).
FVII activity was evaluated in FVII siRNA-treated animals at 48 hours after intravenous (bolus) injection in C57BL/6 mice. FVII was measured using a commercially available kit for determining protein levels in serum or tissue, following the manufacturer's instructions at a microplate scale. FVII reduction was determined against untreated control mice, and the results were expressed as % Residual FVII. Two dose levels (0.05 and 0.005 mg/kg FVII siRNA) were used in the screen of each novel liposome composition.
Test formulations were initially assessed for their FVII knockdown in female 7-9 week old, 15-25 g, female C57B1/6 mice at 0.1, 0.3, 1.0 and 5.0 mg/kg with 3 mice per treatment group. All studies included animals receiving either phosphate-buffered saline (PBS, Control group) or a benchmark formulation. Formulations were diluted to the appropriate concentration in PBS immediately prior to testing. Mice were weighed and the appropriate dosing volumes calculated (10 μl/g body weight). Test and benchmark formulations as well as PBS (for Control animals) were administered intravenously via the lateral tail vein. Animals were anesthetised 24 h later with an intraperitoneal injection of Ketamine/Xylazine and 500-700 μl of blood was collected by cardiac puncture into serum separator tubes (BD Microtainer). Blood was centrifuged at 2,000×g for 10 min at 15° C. and serum was collected and stored at −70° C. until analysis. Serum samples were thawed at 37° C. for 30 min, diluted in PBS and aliquoted into 96-well assay plates. Factor VII levels were assessed using a chromogenic assay (Biophen FVII kit, Hyphen BioMed) according to manufacturer's instructions and absorbance measured in microplate reader equipped with a 405 nm wavelength filter. […]

[2] = probe 2-(p-toluidino)-6-naphthalenesulfonic acid (TNS), 1 µM final, pKa, TNS assay, vesicles cationic lipid/DSPC/CH/PEG-c-DOMG 40:10:40:10
[3] = TNS assay, vesicles cationic lipid/DSPC/CH/PEG-c-DOMG 40:10:40:10

Compound	pKa [1, 2]	ED50 (Factor VII)	further results
CCCCC/C=C\C/C=C\CCCCCCCCC1(CCCCCCCC/C=C\C/C=C\CCCCC)OCC(CCN(C)C)O1 (stereo not shown) [DLin-K5-C2-DMA]		0.10 mg/kg	pKa ([1]; probe 2-(p-toluidino)-6-naphthalenesulfonic acid (TNS), 1 µM final): 6.68
CCCCC/C=C\C/C=C\CCCCCCCCC(CCCCCCCC/C=C\C/C=C\CCCCC)OC(=O)CCCN(C)C [DLin-M-C3-DMA]		0.03 mg/kg	Lipid A ED50 (Factor VII; formulation 40:10:40:10): 0.030 mg/kg; Lipid A ED50 (Factor VII; formulation 50:10:38.5:1.5): 0.010 mg/kg; Lipid B ED50 (Factor VII; formulation 40:10:40:10): 0.030 mg/kg
CCCCC/C=C\C/C=C\CCCCCCCCC(CCCCCCCC/C=C\C/C=C\CCCCC)CN(C)C [ALNY-181]		0.25 mg/kg	
CCCCC/C=C\C/C=C\C/C=C\C/C=C\CCCCC1(CCCC/C=C\C/C=C\C/C=C\C/C=C\CCCCC)OCC(CCN(C)C)O1 (stereo not shown) [DAra-K5-C2-DMA]	6.26	0.52 mg/kg	
CCCCC/C=C\C/C=C\CCCCCCCCC(CCCCCCCC/C=C\C/C=C\CCCCC)OC(=O)CCN(C)C [DLin-M-C2-DMA]		0.60 mg/kg and 0.6 mg/kg	Lipid A pKa (±0.2) ([1]; Lipid A by itself, formulation 40:10:40:10 (cationic lipid:DSPC:cholesterol:PEG-DMG)): 5.64; pKa [1, 3]: 5.64; % residual FVII (Factor VII; 0.05 mg/kg siRNA): about 90%; % residual FVII (Factor VII; 0.10 mg/kg siRNA): about 90%; Lipid A ED50 (Factor VII; formulation 40:10:40:10): 0.600 mg/kg
CCCCC/C=C\C/C=C\CCCCCCCCC(CCCCCCCC/C=C\C/C=C\CCCCC)OC(=O)CCCN(C(C)C)C(C)C [DLin-M-C3-DIPA]		4.50 mg/kg and 4.5 mg/kg	
CCCCC/C=C\C/C=C\CCCCCCCC(=O)OCC(CN(C)C)OC(=O)CCCCCCC/C=C\C/C=C\CCCCC (stereo not shown) [DLin-DAP-DMA]	5.67		
CC/C=C\C/C=C\C/C=C\CCCCCCCCC1(CCCCCCCC/C=C\C/C=C\C/C=C\CC)OCC(CCN(C)C)O1 (stereo not shown) [DLen-K5-C2-DMA]	6.59	0.05 mg/kg	
CC/C=C\C/C=C\C/C=C\C/C=C\C/C=C\C/C=C\CCCC1(CCC/C=C\C/C=C\C/C=C\C/C=C\C/C=C\C/C=C\CC)OCC(CCN(C)C)O1 (stereo not shown) [DDha-K5-C2-DMA]	6.09	0.20 mg/kg	
CCCCC/C=C\C/C=C\CCCCCCCCC(CCCCCCCC/C=C\C/C=C\CCCCC)OC(=O)CCCNCC [DLin-M-C3-EA]		5.00 mg/kg	pKa [1, 3]: 7.62
CCCCC/C=C\C/C=C\C/C=C\CCCCCC(CCCCC/C=C\C/C=C\C/C=C\CCCCC)OC(=O)CCCN(C)C [DLen(γ)-M-C3-DMA]	6.3	0.08 mg/kg	
CCCCC/C=C\C/C=C\CCCCCCCCC1(CCCCCCCC/C=C\C/C=C\CCCCC)OCC(CN(C)C)O1 (stereo not shown) [DLin-K-DMA (CDRD)]		0.40 mg/kg	pKa [1, 3]: 5.91
CCCCC/C=C\C/C=C\CCCCCCCCC(CCCCCCCC/C=C\C/C=C\CCCCC)OC(=O)CCCN(C)CC [DLin-M-C3-MEA]		0.03 mg/kg	pKa [1, 3]: 6.21
CCCCC/C=C\C/C=C\CCCCCCCCC(CCCCCCCC/C=C\C/C=C\CCCCC)OC(=O)CCCN(CC)CC [DLin-M-C3-DEA]		0.30 mg/kg and 0.3 mg/kg	pKa [1, 3]: 6.17
CCCCC/C=C\C/C=C\CCCCCCCCC(CCCCCCCC/C=C\C/C=C\CCCCC)OC(=O)CCCCN(C)C [DLin-M-C4-DMA]		0.15 mg/kg	Lipid B pKa (±0.2) [1]: 6.93; pKa [1, 3]: 6.93; % residual FVII (Factor VII; 0.05 mg/kg siRNA): about 90%; % residual FVII (Factor VII; 0.10 mg/kg siRNA): about 90%; Lipid B ED50 (Factor VII; formulation 40:10:40:10): 0.150 mg/kg
CCCCCCCCCCC(O)CN(CCN1CCN(CCN(CC(O)CCCCCCCCCC)CC(O)CCCCCCCCCC)CC1)CCN(CC(O)CCCCCCCCCC)CC(O)CCCCCCCCCC (stereo not shown) [Compound C12-200, reference compound]			Lipid B pKa (±0.2) [1]: 6.47; Lipid B ED50 (Factor VII; formulation 40:10:40:10): 0.030 mg/kg
CCCCC/C=C\C/C=C\CCCCCCCCC(CCCCCCCC/C=C\C/C=C\CCCCC)ON=C(C)CCN(C)C [ALNY-149]			pKa ([1]; probe 2-(p-toluidino)-6-naphthalenesulfonic acid (TNS), 1 µM final, Lipid A pKa (±0.2), Lipid A by itself, formulation 40:10:40:10 (cationic lipid:DSPC:cholesterol:PEG-DMG)): 6.05; Lipid A ED50 (Factor VII; formulation 40:10:40:10): 0.050 mg/kg
CCCCC/C=C\C/C=C\CCCCCCCCC(CCCCCCC/C=C\C/C=C\CCCCC)OC(=O)CCC[N+](C)(C)C (stereo not shown) [DLin-M-C3-TMA]	> 1		Lipid B ED50 (Factor VII; formulation 40:10:40:10): >1.00 mg/kg
CCCCC/C=C\C/C=C\C/C=C\CCCCCC(CCCCC/C=C\C/C=C\C/C=C\CCCCC)OC(=O)CCCCN(C)C [DLen(γ)-M-C4-DMA]	6.75	0.50 mg/kg	
CCCCC/C=C\C/C=C\CCCCCCCCC(CCCCCCCC/C=C\C/C=C\CCCCC)OC(=O)CCCNC [DLin-M-C3-MA]		5.00 mg/kg	
CCCCC/C=C\C/C=C\CCCCCCCCC(CCCCCCCC/C=C\C/C=C\CCCCC)OC(=O)CCCCCN(C)C [DLin-M-C5-DMA]		0.65 mg/kg	
CCCCC/C=C\C/C=C\CCCCCCCC1OC2(CCN(C)CC2)OC1CCCCCCC/C=C\C/C=C\CCCCC (stereo not shown) [ALNY-156]		<0.1 mg/kg	pKa [1, 3]: 6.08
CCCCC/C=C\C/C=C\CCCCCCCCC(CCCCCCCC/C=C\C/C=C\CCCCC)OC(=O)C(CCN(C)C)C(=O)OC(CCCCCCCC/C=C\C/C=C\CCCCC)CCCCCCCC/C=C\C/C=C\CCCCC [TLin-MAL-C2-DMA]	3.93		

More lines, main results first:

pKa [1, 2]	Compound	ED50 (Factor VII)	further results
6.79	CCCCC/C=C\C/C=C\CCCCCCCCC1(CCCCCCCC/C=C\C/C=C\CCCCC)OC[C@@H](CCN(C)C)O1 [DLin-K-XTC2-DMA-(R)]	0.10 mg/kg	
6.95	CCCCC/C=C\C/C=C\CCCCCCCCC1(CCCCCCCC/C=C\C/C=C\CCCCC)OCCC(CCCN(C)C)O1 (stereo not shown) [DLin-K6A-C3-DMA]	0.70 mg/kg	
6.66	CCCCC/C=C\C/C=C\CCCCCCCCOC(=O)C(CCN(C)C)C(=O)OCCCCCCCC/C=C\C/C=C\CCCCC [DLin-MAL-C2-DMA]	1.50 mg/kg	
10	CCCCC/C=C\C/C=C\CCCCCCCCC1(CCCCCCCC/C=C\C/C=C\CCCCC)OCC(NC(=N)N)O1 (stereo not shown) [ALNY-232]		
7.25	CCCCC/C=C\C/C=C\CCCCCCCCC1(CCCCCCCC/C=C\C/C=C\CCCCC)OCC(CCN(C)C)CO1 [DLin-K6S-C2-DMA]	3.00 mg/kg	
5.94	CCCCC/C=C\C/C=C\CCCCCCCCC1(CCCCCCCC/C=C\C/C=C\CCCCC)OCC(CN(C)C)O1 (stereo not shown) [DLin-K-DMA (Biofine)]	0.25 mg/kg	
10	CCCCC/C=C\C/C=C\CCCCCCCCC(CCCCCCCC/C=C\C/C=C\CCCCC)CN(C)CCNC(=N)N [ALNY-139]	5.00 mg/kg	
6.65	CCCCC/C=C\C/C=C\CCCCCCCCC1(CCCCCCCC/C=C\C/C=C\CCCCC)OC[C@H](CCN(C)C)O1 [DLin-K-XTC2-DMA-(S)]	0.10 mg/kg	
6.73	CCCCC/C=C\C/C=C\CCCCCCCCC1(CCCCCCCC/C=C\C/C=C\CCCCC)OCCC(CCN(C)C)O1 (stereo not shown) [DLin-K6A-C2-DMA]	0.25 mg/kg	
5.97	CCCCC/C=C\C/C=C\CCCCCCCCC1(CCCCCCCC/C=C\C/C=C\CCCCC)OCC(CN(C)C)CO1 [DLin-K6S-C1-DMA]	0.10 mg/kg	
6.63	CCCCC/C=C\C/C=C\CCCCCCCCC1(CCCCCCCC/C=C\C/C=C\CCCCC)O[C@@H]2C3CC([C@H](N(C)C)C3)[C@@H]2O1 (stereo partly shown) [ALNY-171]	0.25 mg/kg	
7.61	CCCCC/C=C\C/C=C\CCCCCCCCC1(CCCCCCCC/C=C\C/C=C\CCCCC)OCC(CCCCN(C)C)CO1 [DLin-K6S-C4-DMA]	4.00 mg/kg	
